The record followed here is patent US20250302913A1, “LACRIPEP PROMOTES NEUROREGENERATION AND MAINTAINS EPITHELIAL PROGENITOR CELL IDENTITY” (The Regents of The University of California, priority 2022, published 2025).

What all share (assay type): in vivo, mouse
In one assay the test system is ZO1. Kind of assay: Immunofluorescent quantification of tight junction protein ZO1 in corneal epithelium. The settings on record: day 15; Aire KO cornea. From the text:
As dry eye results in disruption of ocular surface integrity resulting in cornea barrier dysfunction and, consequently, fluid loss and pathogen invasion (11), we next determined whether lacripep maintains corneal epithelial architecture by analyzing lissamine green uptake at day 7 and 15. […] Restoration of barrier function was further confirmed by analyzing the superficial epithelial layers for the tight junction protein ZO1 which is essential to the structural integrity of the corneal epithelium (12).
Immunohistological and immunofluorescent analyses of cornea and lacrimal gland samples were performed as previously described (8). […]
For immunofluorescent analysis, 7 or 20 μm tissue sections were incubated with the following primary antibodies: mouse anti-ZO1 conjugated to Alexa594 (1:1000, Life Technologies, Cat 339194), rabbit anti-KRT6A (1:800, Cell Signaling, Cat 4912S), chicken anti-KRT14 (1:1500, Santa Cruz, Cat 515882), rat anti-Ki67 (1:200, Biolegend, 652405), rat anti-CD4 (1:200, Santa Cruz), rabbit anti-TUBB3 (1:500, Cell Signaling, Cat 5568S), and rat anti-Ecadherin (1:300, Life Technologies, Cat 131900). Antibodies were detected using Cy2-, Cy3- or Cy5-conjugated secondary Fab fragment antibodies (Jackson Laboratories), and nuclei were stained with Hoechst 33342 (1:3000, Sigma-Aldrich). […]
Quantification of tight junction protein ZO1. […]

For another assay, the system named is Aire KO mice. The assay is described as follows: Basal tear secretion (phenol red thread) in Aire KO dry eye mice. As to conditions: day 15, 4 μM topical 3x per day for 14 days. The protocol:
To determine the impact of lacripep on physiological (basal) tear secretion, lacripep (4 μM) or phosphate buffered saline (PBS, control) was topically applied to Aire KO corneas 3 times (3×) per day for 14 consecutive days (from 5 to 7 wk of age) and tear production was measured at day 0, 7 and 15 (FIG. 1A).
All procedures were approved by the UCSF Institutional Animal Care and Use Committee (IACUC) and adhered to the NIH Guide for the Care and Use of Laboratory Animals (Approval number: 332AN089075-02). Wild type (WT) and Aire-deficient mice on the BALB/c background (BALB/c Aire KO) were the gift of Mark Anderson, University of California, San Francisco. Adult female mice (aged between 5 and 7 weeks) were used in all experiments. […] Appropriate sample size was calculated using power calculations. […]
Mice were anesthetized with isoflurane and basal tear secretion was then measured using a Zone-Quick phenol red thread (as indicated by the length of the tear-absorbed region in 15 seconds). Stimulated tear secretion was measured after 4.5 mg/kg of pilocarpine diluted in saline was injected into the peritoneum (i.p.). Ten minutes later, mice were anesthetized with isoflurane and tear secretion was measured using a Zone-Quick phenol red thread (Showa Yakuhin Kako Co. Ltd., Tokyo, Japan).

A further assay relates to KRT14+ basal cells. The assay is described as follows: Basal progenitor identity (KRT14/KRT6A) and proliferation (Ki67) in cornea. The settings on record: 2 wks treatment; Aire KO cornea. From the text:
Although it has been well established that basal progenitor cells (also referred to as transit amplifying cells (13)) undergo mitosis and migration (14) to give rise to the barrier forming suprabasal epithelial and stratified squamous epithelial cells, the impact of dry eye disease on basal cell identity and differentiation remains largely unknown. Thus, we questioned whether basal cell identity was altered in the desiccated cornea through defining the cellular location of KRT6A, a marker of early epithelial cell differentiation in skin (15) and cultured cornea epithelial cells (16). Accordingly, we confirmed that KRT6A marks differentiated corneal epithelial cell types in vivo, as shown by its exclusive expression in KRT14-deficient suprabasal and superficial epithelial cells of healthy cornea at 7 wks of age (FIG. 1G). […] To determine if changes in cell identity alters progenitor cell division, we analyzed the percentage of proliferating K14+ basal cells in treated and untreated corneas. […]
Quantification of corneal epithelial basal progenitor identity and proliferation. The number of basal KRT14+ and KRT14+ KRT6A+ basal epithelial cells were counted in 350 μm sections of central cornea. […] The number of proliferating epithelial progenitors (Ki67+ KRT14+) was presented as a percentage of total KRT14+ cells counted in 350 μm sections of central cornea.

In the case of “Ac-KQFIENGSEFAQKLLKKFSLLKPWA-NH2 [lacripep, amino terminus acetylated, carboxyl terminus aminated]”, the “ZO1 expression in superficial epithelial layers” value with ZO1 is “mimicked that of WT controls”. In addition, in the assay with Aire KO mice, the “basal tear volumes relative to WT” value is 83 % of WT. Besides, the “basal cell identity (KRT6A in KRT14+ basal cells)” value with KRT14+ basal cells is “returned to that of WT tissue”.
